Values of other authors, collected in patent US6335036B1, “Granular pharmaceutical preparation of ebselen” (Daiichi Pharmaceutical Co., Ltd., priority 1996, dated 2002).

Details: known property, background art

Solubility in water: slightly soluble in water
Structure (SMILES): O=c1c2ccccc2[se]n1-c1ccccc1 [Ebselen, 2-phenyl-1,2-benzisoselenazol-3(2H)-one]
